Reference: paper PMC12810539, “EGFR-targeted gadolinium contrast agents for enhanced molecular magnetic resonance imaging of tumors” (The Journal of Biological Chemistry, 2025)

Tested on: MDA-MB-231 and U138 MG cells
Test: Laser scanning confocal fluorescence microscopy of cellular uptake
Format: cell-based, human
Settings: for Cy5.5 fluorescence intensity in MDA-MB-231 cells versus U138MG cells: 0.3 μM Cy5.5 equivalent, 1 h, 37 °C, confocal microscopy; for effect of C225 preincubation on cellular fluorescence: C225 preincubation 12 h, then agent for 1 h, MDA-MB-231 and U138 MG cells
Protocol: To investigate the intracellular distribution of EBP-Gd-DO3A in cells with different levels of EGFR expression, MDA-MB-231 and U138 MG cells were seeded on glass coverslips in 24-well plates (5 × 10^4 cells per well). After 24 h, the cells were washed twice with serum-free medium, treated with 0.3 μM Cy5.5 or Cy5.5-EBP-Gd-DO3A (concentration of equivalent Cy5.5), and incubated at 37 °C for 1 h. Following incubation, cells were washed three times with PBS (pH 7.4) to remove unbound probes and were stained with 4′,6-diamidino-2-phenylindole (DAPI) (Sigma-Aldrich) for 10 min and examined with a laser scanning confocal fluorescence microscope (Leica, TCS SP8) with a 40 × objective lens. The fluorescence signals from Cy5.5 and its conjugates were visualized at λex = 680 nm and λem = 710 nm, while the fluorescence signals of DAPI (nucleus) were performed at λex = 350 nm and λem = 460 nm. The laser power, illumination intensity, and exposure time were kept identical across all samples to ensure quantitative comparability. To further characterize the selective cellular uptake of the conjugate via the EGFR-mediated pathway, the cells were preincubated with C225 for 12 h at 37 °C before probe treatment. Following the removal of the pretreatment solution, the cells were washed with serum-free medium, treated with Cy5.5 or Cy5.5-EBP-Gd-DO3A conjugate, and incubated at 37 °C as described above. The cells were stained with DAPI and visualized using the laser scanning confocal fluorescence microscope, and the fluorescent intensity of the cells was analyzed using Image J.

Substance | Cy5.5 fluorescence intensity in MDA-MB-231 cells versus U138MG cells | effect of C225 preincubation on cellular fluorescence
CMYIEALDKYAC [Cy5.5-EBP-Gd-DO3A, Cy5.5-labelled EBP-Gd-DO3A conjugate for fluorescence microscopy] | much stronger | inhibited
Cy5.5 [reference compound] | the same | did not affect
